Measurements from patent US8821891B2, “Live attenuated rotavirus vaccine for oral administration” (priority 2005, dated 2014).
Read-outs that look alike come from different tables or passages of the source.

What was measured:
[1] = cited from earlier work
[2] = standard acid-base titration curve, FIG. 1

Compound | pKa (physchem) | useful antacid capacity between pH 4.0 and pH 7.0 [2] | other results
O=C(O)CCCCC(=O)O [Adipic, adipic acid] | 4.91 | – | –
O=C(O)CCCC(=O)O [Glutaric, glutaric acid] | 4.78 | – | –
O=C(O)/C=C\C(=O)O [Maleic, maleic acid] | 4.07 | – | –
O=C(O)CC(O)C(=O)O (centres unmarked) [Malic, malic acid] | 4.22 | – | –
CCC(=O)O [Propinic, propionic acid] | – | – | Toxicity (LD50 oral, in rat) ([1]; oral): 2600 mg/kg
O=C(O)CCC(=O)O [Succinic, succinic acid] | 4.9 | – | Toxicity (LD50 oral, in rat) ([1]; in vivo, po): 2260 mg/kg
CC(=O)[O-].[Na+] [sodium acetate] | – | 68.75% | –
O=C([O-])CCCCC(=O)[O-].[Na+].[Na+] [sodium adipate] | – | 72.50% | –
O=C([O-])CC(O)(CC(=O)[O-])C(=O)[O-].[Na+].[Na+].[Na+] [sodium citrate] | – | 57.70% | –
O=C([O-])CC(O)C(=O)[O-].[Na+].[Na+] (centres unmarked) [sodium malate] | – | 41.25% | –
